From publication PMC6815239 (Nature chemistry, 2019)

Legend:
MalA = MalA (Malbranchea aurantiaca, UniProt L0E155); experiment: LC/MS halogenation assay; type: biochemical; conditions: full pathway reconstitution, NaCl
MalG R = MalG R (Malbranchea aurantiaca, UniProt L0E2Z1); experiment: LC/MS product formation; type: biochemical; conditions: substrate analog 23 loaded on MalG T2
PhqE [1] = molecular target: T1, PhqE (Penicillium fellutanum, UniProt L0E2Z4); experiment: X-ray crystal structure, […] Å; type: binding; conditions: complex with (+)-premalbrancheamide
PhqE [2] = molecular target: T1, PhqE; experiment: X-ray crystal structure; type: binding; conditions: crystals grown with NAD+
MalB = molecular target: T2, MalB (Malbranchea aurantiaca, UniProt L0E2Y5); experiment: prenyltransferase assay, LC/MS; type: biochemical; conditions: substrate-loaded MalG domains, NADPH
T2 sequence (L0E2Y5 1-369): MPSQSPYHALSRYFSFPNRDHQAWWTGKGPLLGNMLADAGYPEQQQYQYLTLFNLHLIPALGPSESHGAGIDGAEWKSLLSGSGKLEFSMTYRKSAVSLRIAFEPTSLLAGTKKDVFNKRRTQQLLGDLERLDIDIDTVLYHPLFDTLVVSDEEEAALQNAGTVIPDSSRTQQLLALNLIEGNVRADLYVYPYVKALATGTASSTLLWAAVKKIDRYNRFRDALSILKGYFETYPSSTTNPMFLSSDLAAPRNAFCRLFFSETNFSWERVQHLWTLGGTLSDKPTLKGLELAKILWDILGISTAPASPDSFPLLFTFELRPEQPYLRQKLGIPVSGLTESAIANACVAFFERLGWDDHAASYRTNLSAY

MalE = molecular target: T3, MalE (Malbranchea aurantiaca, UniProt L0E2P7); experiment: prenyltransferase assay, LC/MS; type: biochemical; conditions: substrate-loaded MalG domains, NADPH
T3 sequence (L0E2P7 1-438): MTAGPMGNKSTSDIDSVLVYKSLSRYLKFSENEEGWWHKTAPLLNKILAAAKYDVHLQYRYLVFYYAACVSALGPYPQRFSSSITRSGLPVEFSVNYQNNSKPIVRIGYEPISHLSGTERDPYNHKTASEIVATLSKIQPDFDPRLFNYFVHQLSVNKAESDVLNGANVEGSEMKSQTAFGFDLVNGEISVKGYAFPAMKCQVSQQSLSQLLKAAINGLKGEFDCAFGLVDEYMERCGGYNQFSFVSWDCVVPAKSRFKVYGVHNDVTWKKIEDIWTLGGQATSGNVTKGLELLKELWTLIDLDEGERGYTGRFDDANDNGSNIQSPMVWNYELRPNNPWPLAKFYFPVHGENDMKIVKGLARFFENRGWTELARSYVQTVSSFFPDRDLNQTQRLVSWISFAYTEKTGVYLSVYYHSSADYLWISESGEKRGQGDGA

T1 sequence (L0E2Z4 whole entry): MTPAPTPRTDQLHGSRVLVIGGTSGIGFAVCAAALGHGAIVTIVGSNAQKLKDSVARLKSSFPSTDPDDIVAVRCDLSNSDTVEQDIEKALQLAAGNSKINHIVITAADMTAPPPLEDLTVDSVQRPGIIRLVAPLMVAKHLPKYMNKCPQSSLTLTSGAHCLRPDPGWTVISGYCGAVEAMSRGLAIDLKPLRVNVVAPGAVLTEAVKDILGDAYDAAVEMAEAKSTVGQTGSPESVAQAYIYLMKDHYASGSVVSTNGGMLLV
MalG R, sequence (L0E2Z1 1950-2345): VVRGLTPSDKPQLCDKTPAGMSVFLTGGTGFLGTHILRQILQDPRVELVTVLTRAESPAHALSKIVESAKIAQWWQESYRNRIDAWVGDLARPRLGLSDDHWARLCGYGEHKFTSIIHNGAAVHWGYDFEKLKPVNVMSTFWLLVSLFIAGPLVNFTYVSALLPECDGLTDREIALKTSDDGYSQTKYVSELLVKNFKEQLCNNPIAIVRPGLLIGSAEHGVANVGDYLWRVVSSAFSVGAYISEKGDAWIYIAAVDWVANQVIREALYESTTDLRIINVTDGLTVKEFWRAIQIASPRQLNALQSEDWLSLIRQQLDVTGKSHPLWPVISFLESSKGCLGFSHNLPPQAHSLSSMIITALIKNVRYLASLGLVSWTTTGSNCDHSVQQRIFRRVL
MalA, sequence (L0E155 whole entry): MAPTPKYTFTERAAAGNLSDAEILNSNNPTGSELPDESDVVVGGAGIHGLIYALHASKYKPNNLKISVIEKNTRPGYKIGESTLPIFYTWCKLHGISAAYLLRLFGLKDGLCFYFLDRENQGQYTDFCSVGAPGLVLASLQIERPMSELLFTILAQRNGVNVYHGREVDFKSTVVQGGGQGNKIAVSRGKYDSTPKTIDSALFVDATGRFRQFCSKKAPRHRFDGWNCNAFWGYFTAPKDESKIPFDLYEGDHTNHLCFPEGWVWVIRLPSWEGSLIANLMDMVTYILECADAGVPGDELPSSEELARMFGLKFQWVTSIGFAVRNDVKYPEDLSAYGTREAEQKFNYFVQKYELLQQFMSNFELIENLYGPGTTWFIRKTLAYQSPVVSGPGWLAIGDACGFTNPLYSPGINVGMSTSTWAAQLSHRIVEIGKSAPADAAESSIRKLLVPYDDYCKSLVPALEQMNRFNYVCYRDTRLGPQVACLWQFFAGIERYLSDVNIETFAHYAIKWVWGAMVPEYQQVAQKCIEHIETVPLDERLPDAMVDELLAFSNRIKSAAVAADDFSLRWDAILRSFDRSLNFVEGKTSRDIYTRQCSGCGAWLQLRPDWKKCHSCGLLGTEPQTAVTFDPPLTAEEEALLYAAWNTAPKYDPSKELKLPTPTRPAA

Cc1cc2c(cc1C)N(C[C@H](O)[C@H](O)[C@H](O)COP(=O)(O)OP(=O)(O)OC[C@H]1O[C@@H](n3cnc4c(N)ncnc43)[C@H](O)[C@@H]1O)c1[nH]c(=O)[nH]c(=O)c1N2 [FADH2]
LC/MS halogenation assay (MalA): We incubated MalA with its pathway partners (L-Pro and L-Trp MalG, MalE and MalC, NADPH

NC(=O)C1=CN([C@@H]2O[C@H](COP(=O)(O)OP(=O)(O)OC[C@H]3O[C@@H](n4cnc5c(N)ncnc54)[C@H](OP(=O)(O)O)[C@@H]3O)[C@@H](O)[C@H]2O)C=CC1 [NADPH]
LC/MS product formation (MalG R): NADPH was the preferred cofactor in this reaction

NC(=O)c1ccc[n+]([C@@H]2O[C@H](COP(=O)(O)OP(=O)(O)OC[C@H]3O[C@@H](n4cnc5c(N)ncnc54)[C@H](OP(=O)(O)O)[C@@H]3O)[C@@H](O)[C@H]2O)c1 [NADP^+]
X-ray crystal structure, 2.4 Å (PhqE [1]): PhqE crystals grown with NADP^+ showed strong electron density for the cofactor

NC(=O)c1ccc[n+]([C@@H]2O[C@H](COP(=O)(O)OP(=O)(O)OC[C@H]3O[C@@H](n4cnc5c(N)ncnc54)[C@H](O)[C@@H]3O)[C@@H](O)[C@H]2O)c1 [NAD^+]
X-ray crystal structure (PhqE [2]): while NAD^+ showed weak electron density

CC(C)=CCOP(=O)(O)OP(=O)(O)O [dimethylallyl pyrophosphate]
prenyltransferase assay, LC/MS (MalB): whereas MalB displayed modest activity | prenyltransferase assay, LC/MS (MalE): dimethylallyl pyrophosphate (DMAPP), the prenyl donor. MalE readily catalyzed a C2 reverse prenyl transfer
